Laboratory results from ChEMBL document CHEMBL4480432, “Expansion of a novel lead targeting M. tuberculosis DHFR as antitubercular agents” (Bioorg Med Chem, 2019).
In brackets after ≈: the same amount, converted by molar mass.

Tested on: DHFR (human versus Mycobacterium tuberculosis H37Rv)
Assay: Selectivity index, ratio of IC50 for human DHFR to IC50 for Mycobacterium tuberculosis H37Rv DHFR expressed in Escherichia coli BL21(DE3)
Assay type: toxicity
Details: human and Mycobacterium tuberculosis H37Rv; read-out: Ratio IC50

Work on CC(=O)c1c(C)n(Cc2ccccc2)c2ccc(OCc3cn(-c4cccc(Cl)c4)nn3)cc12 yielded a selectivity ratio of 4.17.

Biological target: T1, Dihydrofolate reductase (Mycobacterium tuberculosis, UniProt P9WNX1)
T1 sequence (P9WNX1 whole entry): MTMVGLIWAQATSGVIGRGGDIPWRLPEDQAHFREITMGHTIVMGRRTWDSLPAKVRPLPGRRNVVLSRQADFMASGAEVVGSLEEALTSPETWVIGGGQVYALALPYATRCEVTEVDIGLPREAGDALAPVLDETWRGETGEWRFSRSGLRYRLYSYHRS
Assay: Inhibition of Mycobacterium tuberculosis H37Rv DHFR expressed in Escherichia coli BL21(DE3) assessed as reduction in consumption of NADPH using DHF as substrate preincubated for 1 min followed by DHF addition and measured for 2 mins by spectrophotometric method
Details: not given

In order of falling IC50:
1. CC(=O)c1c(C)n(Cc2ccccc2)c2ccc(OCc3cn(-c4cccc(Cl)c4)nn3)cc12  43.1 µM
2. CC(=O)c1c(C)n(Cc2ccccc2)c2ccc(OCCCC(=O)O)cc12  25 µM

Biological target: T2, Dihydrofolate reductase (Homo sapiens, UniProt P00374)
T2 sequence (P00374 whole entry): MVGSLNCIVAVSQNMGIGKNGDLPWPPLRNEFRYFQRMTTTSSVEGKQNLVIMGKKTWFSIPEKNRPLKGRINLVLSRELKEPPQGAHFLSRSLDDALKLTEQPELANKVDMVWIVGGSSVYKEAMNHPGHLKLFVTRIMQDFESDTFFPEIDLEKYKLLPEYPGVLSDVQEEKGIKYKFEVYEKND
Assay: Inhibition of human DHFR assessed as reduction in consumption of NADPH using DHF as substrate preincubated for 1 min followed by DHF addition and measured for 2 mins by spectrophotometric method
Details: not given

In the case of CC(=O)c1c(C)n(Cc2ccccc2)c2ccc(OCc3cn(-c4cccc(Cl)c4)nn3)cc12, the IC50 is reported as 180 µM.

Tested on: Mycobacterium tuberculosis
Assay: microbe, parasite or virus in culture
Details: H37Rv ATCC 27294, 168 h
Description: Antitubercular activity against Mycobacterium tuberculosis H37Rv ATCC 27294 after 7 days by microplate alamar blue method

In order of falling MIC:
1. CC(=O)c1c(C)n(Cc2ccccc2)c2ccc(OCc3cn(-c4ccc(C)cc4)nn3)cc12  55.5 µM (≈ 25 µg/mL)
2. CC(=O)c1c(C)n(Cc2ccccc2)c2ccc(OCc3cn(-c4ccc(F)cc4)nn3)cc12  55 µM (≈ 25 µg/mL)
3. CC(=O)c1c(C)n(Cc2ccccc2)c2ccc(OCc3cn(-c4ccc(C#N)cc4)nn3)cc12  54.2 µM (≈ 25 µg/mL)
4. CC(=O)c1c(C)n(Cc2ccccc2)c2ccc(OCc3cn(-c4ccc(C)c(C)c4)nn3)cc12  53.8 µM (≈ 25 µg/mL)
5. COc1ccccc1-n1cc(COc2ccc3c(c2)c(C(C)=O)c(C)n3Cc2ccccc2)nn1  53.6 µM (≈ 25 µg/mL)
6. CC(=O)c1c(C)n(Cc2ccccc2)c2ccc(OCc3cn(-c4ccc(Cl)cc4)nn3)cc12  53.1 µM (≈ 25 µg/mL)
7. CCOC(=O)c1c(C)n(Cc2ccccc2)c2ccc(OCc3cn(-c4ccc(F)cc4)nn3)cc12  51.6 µM (≈ 25 µg/mL)
8. CCOC(=O)c1c(C)n(Cc2ccccc2)c2ccc(OCc3cn(-c4ccc(CC)cc4)nn3)cc12  50.6 µM (≈ 25 µg/mL)
9. CCOC(=O)c1c(C)n(Cc2ccccc2)c2ccc(OCc3cn(-c4ccccc4OC)nn3)cc12  50.4 µM (≈ 25 µg/mL)
10. CCOC(=O)c1c(C)n(Cc2ccccc2)c2ccc(OCc3cn(-c4cccc(Cl)c4)nn3)cc12  50.2 µM (≈ 25.1 µg/mL)
11. CC(=O)c1c(C)n(Cc2ccccc2)c2ccc(OCc3cn(-c4ccc(C(F)(F)F)cc4)nn3)cc12  49.5 µM (≈ 25 µg/mL)
12. CCOC(=O)c1c(C)n(Cc2ccccc2)c2ccc(OCc3cn(-c4ccc([N+](=O)[O-])cc4)nn3)cc12  48.9 µM (≈ 25 µg/mL)
13. CCOC(=O)c1c(C)n(Cc2ccccc2)c2ccc(OCc3cn(-c4ccc(C(F)(F)F)cc4)nn3)cc12  46.8 µM (≈ 25 µg/mL)
14. CCOC(=O)c1c(C)n(Cc2ccccc2)c2ccc(OCc3cn(-c4ccc(Br)cc4)nn3)cc12  45.9 µM (≈ 25.1 µg/mL)
15. CCc1ccc(-n2cc(COc3ccc4c(c3)c(C(C)=O)c(C)n4Cc3ccccc3)nn2)cc1  26.9 µM (≈ 12.5 µg/mL)
16. CCOC(=O)c1c(C)n(Cc2ccccc2)c2ccc(OCc3cn(-c4ccc(C)cc4)nn3)cc12  26 µM (≈ 12.5 µg/mL)
17. CC[C@@H](CO)NCCN[C@@H](CC)CO [ETHAMBUTOL]  16.5 µM (≈ 3.37 µg/mL)
18. CC(=O)c1c(C)n(Cc2ccccc2)c2ccc(OCc3cn(-c4ccc([N+](=O)[O-])cc4)nn3)cc12  12.9 µM (≈ 6.21 µg/mL)
19. CCOC(=O)c1c(C)n(Cc2ccccc2)c2ccc(OCc3cn(-c4ccc(C#N)cc4)nn3)cc12  12.7 µM (≈ 6.25 µg/mL)
20. CC(=O)c1c(C)n(Cc2ccccc2)c2ccc(OCc3cn(-c4cccc(Cl)c4)nn3)cc12  6.64 µM (≈ 3.13 µg/mL)
21. O=C(O)c1cn(C2CC2)c2cc(N3CCNCC3)c(F)cc2c1=O [CIPROFLOXACIN]  4.7 µM (≈ 1.56 µg/mL)
22. CN(Cc1cnc2nc(N)nc(N)c2n1)c1ccc(C(=O)N[C@@H](CCC(=O)O)C(=O)O)cc1 [METHOTREXATE]  3.38 µM (≈ 1.54 µg/mL)
23. NNC(=O)c1ccncc1 [ISONIAZID]  0.73 µM (≈ 0.1 µg/mL)
24. CO[C@H]1/C=C/O[C@@]2(C)Oc3c(C)c(O)c4c(O)c(c(/C=N/N5CCN(C)CC5)c(O)c4c3C2=O)NC(=O)/C(C)=C\C=C\[C@H](C)[C@H](O)[C@@H](C)[C@@H](O)[C@@H](C)[C@H](OC(C)=O)[C@@H]1C [RIFAMPIN]  0.25 µM (≈ 0.206 µg/mL)
